The nature of experiment [1]: Inhibition of mouse GAT3 expressed in HEK293 cells assessed as reduction in [3H]GABA uptake preincubated for 25 mins followed by [3H]GABA addition measured after 4 mins by liquid scintillation counting analysis.
Experiment [2] in a line: Inhibition of mouse GAT2 expressed in HEK293 cells assessed as reduction in [3H]GABA uptake preincubated for 25 mins followed by [3H]GABA addition measured after 4 mins by liquid scintillation counting analysis.

Data on four compounds can be found in BindingDB's records for doi:10.1021/acs.jmedchem.8b00629 (Ludwig-Maximilians-University Munich, 2018).

Consider `O=C(O)[C@@H]1CCCN(CCC#Cc2cccc(/N=N/c3cccc4ccccc34)c2)C1`, for which the IC50 in experiment [1] and in experiment [2] was greater than 100 µM each time.

`O=C(O)[C@@H]1CCCN(CCC#Cc2ccc(/N=N/c3cccc4ccccc34)cc2)C1`: the IC50 in experiment [1] and in experiment [2] was greater than 100 µM throughout.

For `O=C(O)[C@@H]1CCCN(CCC#Cc2ccc(/N=N/c3ccccc3)cc2)C1`, the IC50 in experiment [1] and in experiment [2] was greater than 100 µM in each case.

For the compound `O=C(O)[C@@H]1CCCN(CCC#Cc2cccc(/N=N/c3ccccc3)c2)C1`, the IC50 in experiment [1] and in experiment [2] was greater than 100 µM each time.
